Laboratory results published in patent US9162992B2, “Compounds and compositions for treatment of breathing control disorders or diseases” (GALLEON PHARMACEUTICALS, INC., priority 2010, dated 2015).

How the values were obtained:
[1] = tested on: midazolam-induced respiratory depression; assay: Benzodiazepine-induced respiratory depression (BIRD), midazolam, rat plethysmography; format: in vivo
Procedure: Compound (XXXVI) was dissolved in 20% hydroxypropyl-beta-cyclodextran in sterile water, and titrated to a pH of 4-8 using pH paper and NaOH or HCl, resulting in a clear, stable solution at a concentration of 1.5 mg/mL. Other compounds: morphine sulfate, supplied as 10 mg/mL solution by (Baxter, Inc) and midazolam, supplied as 5 mg/mL solution (Hospira, Inc.)
Male Sprague-Dawley rats (Harlan, Inc.), 250-350 g at time of dosing, surgically prepared by Harlan with jugular vein cannulas. 12 Chamber Plethysmography System with temperature/humidity compensation (Epstein et al., 1980, J. Apply Physiol. 49:1107-1115); From Buxco, Inc. (PLY 3223; Buxco, Inc, Wilmington, N.C., USA) Biosystem XA, software, v2.11.1. Customized 12 site automated infusion system (Harvard Apparatus; Instech, Inc)
Rat whole body plethysmography was used to evaluate and quantify minute ventilation and the pattern of breathing. A respiratory waveform was generated from the exchange of air between the animal and the chamber. This exchange induced changes in air volume that were measured with a pressure transducer, constituting the respiratory waveform. Atmospheric temperature and humidity were also measured using temperature and humidity probes which sampled chamber conditions. A compensation factor was then determined and applied to the respiratory waveform using a standardized algorithm (Epstein et al., 1980, J. Apply Physiol. 49:1107-1115) to compensate for respiratory conditioning, which was reported as the parameter COMP (see appendix).
All animals were acclimated to plethysmography chambers for at least 1 hour, or until animals were no longer restless (up to 2 hours) prior to data collection. Bolus intravenous (IV) dosing was administered at a rate of 5-10 seconds per dose, and catheters were flushed with 350 μL of sterile saline to be sure of complete drug delivery. […] All plethysmography data was recorded automatically by the Buxco equipment.
Respiratory data were collected on a breath-by-breath basis and averaged into 1 min time bins for data analysis. For each designated acquisition phase, which is the time between doses, percent change from pre-treatment baseline values were calculated for each cohort on multiple ventilatory parameters including respiratory frequency (f), tidal volume (TV), accumulated volume (AV), minute ventilation (MV), inspiratory time (Ti), expiratory time (Te), peak inspiratory flow (PIF), peak expiratory flow (PEF), relaxation time (RT), end inspiratory pause (EIP), end expiratory pause (EEP), delta volume (DV), expiratory flow at 50% TV (EF50), rejection index (Rinx), compensation (Comp), enhanced pause (Penh), pause (PAU), PEF rate (Rpef), relative humidity (RH), and atmospheric temperature (Temp). […]

[2] = target: T1, BK potassium channel expressed in GH3 cells (Rattus norvegicus, UniProt Q62976); assay: BK potassium channel current in GH3 cells, inside-out patches; format: cell-based
T1 construct: endogenous in cells; host or cells: GH3 cells
Procedure: Stock solutions of the test article were prepared in dimethylsulfoxide (DMSO) and stored frozen. Test article concentrations were prepared fresh daily by diluting stock solutions into a physiological saline solution (composition in mM): KCl, 125; CaCl2, 8.5; HEPES, 10; EGTA, 11.25; pH adjusted to 7.2 with KOH (prepared weekly and refrigerated until used). All test solutions contained 0.1% DMSO.
GH3 cells were grown in culture using standard procedures. Ionic currents were measured from inside-out patches of GH3 cells. Channel activity was monitored in symmetrical K^+ conditions with a holding potential of −60 mV. Activities before and in the presence of each concentration of test articles were recorded for ≧3 minutes, respectively.
Data acquisition and analyses were performed using the suite of pCLAMP (Ver. 8.2) programs (MDS-AT, Sunnyvale, Calif. Percent inhibition by test article was calculated using the following equation: 100*(NPocontrol−NPotest)/NPocontrol Results

T1 sequence (Q62976 whole entry): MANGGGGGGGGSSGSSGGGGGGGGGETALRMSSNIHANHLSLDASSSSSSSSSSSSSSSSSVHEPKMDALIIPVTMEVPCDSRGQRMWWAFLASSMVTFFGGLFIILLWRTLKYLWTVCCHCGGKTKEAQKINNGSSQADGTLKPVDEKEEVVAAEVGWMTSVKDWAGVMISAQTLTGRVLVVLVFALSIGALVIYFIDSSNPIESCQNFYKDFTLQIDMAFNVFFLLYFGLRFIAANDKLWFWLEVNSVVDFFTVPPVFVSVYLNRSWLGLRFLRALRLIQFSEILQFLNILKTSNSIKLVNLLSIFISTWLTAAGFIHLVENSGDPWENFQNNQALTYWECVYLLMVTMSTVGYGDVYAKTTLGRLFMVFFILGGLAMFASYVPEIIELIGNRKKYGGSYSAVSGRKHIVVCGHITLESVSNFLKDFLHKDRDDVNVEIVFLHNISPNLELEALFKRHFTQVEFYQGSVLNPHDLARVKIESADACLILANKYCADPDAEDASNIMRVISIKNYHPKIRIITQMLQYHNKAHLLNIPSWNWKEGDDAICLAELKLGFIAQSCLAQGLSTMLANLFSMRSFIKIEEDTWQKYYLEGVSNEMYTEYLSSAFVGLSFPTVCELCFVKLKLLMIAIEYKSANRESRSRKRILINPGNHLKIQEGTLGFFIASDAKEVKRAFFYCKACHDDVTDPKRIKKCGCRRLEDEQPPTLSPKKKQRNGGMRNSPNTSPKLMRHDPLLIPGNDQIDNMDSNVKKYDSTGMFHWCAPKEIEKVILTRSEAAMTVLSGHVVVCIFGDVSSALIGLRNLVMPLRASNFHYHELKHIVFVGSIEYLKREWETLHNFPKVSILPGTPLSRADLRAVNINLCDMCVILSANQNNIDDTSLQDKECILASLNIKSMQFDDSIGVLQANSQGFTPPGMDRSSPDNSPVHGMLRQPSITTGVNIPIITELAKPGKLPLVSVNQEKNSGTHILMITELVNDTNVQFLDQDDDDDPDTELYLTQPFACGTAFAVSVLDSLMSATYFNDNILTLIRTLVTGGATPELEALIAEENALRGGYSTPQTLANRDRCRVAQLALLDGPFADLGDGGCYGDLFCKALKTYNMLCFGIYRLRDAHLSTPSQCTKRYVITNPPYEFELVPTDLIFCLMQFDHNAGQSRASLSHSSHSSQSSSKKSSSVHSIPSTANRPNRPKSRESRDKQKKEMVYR

Compound | effect on f, Ti, RT, EIP, dv, EF50, Rinx, Comp, Penh, PAU, Rpef, RH and Temp ([1]; 0.1 mg/kg/min infusion 30 min) | effects of midazolam on MV, TV, AV, Te, PIF, PEF and EEP ([1]; 0.1 mg/kg/min infusion 30 min) | reversal of the BIRD induced decrease in MV ([1]; 0.1 mg/kg/min infusion, end of infusion period (t=38)) | adverse behavioral effects ([1]; rats, doses tested) | reduction of total channel open probability ([2]; 10 μM) [%] | inhibition of the native BK channel ([2]; 1 and 10 μM) | Inhibition (%), Average ([2]; (XXXV) 1 (mM as printed)) [%] | NPo, Average ([2]; (XXXV) 1 (mM as printed)) | Inhibition (%), Average ([2]; (XXXV) 10 (mM as printed)) [%] | NPo, Average ([2]; (XXXV) 10 (mM as printed))
CCCNc1nc(NCCC)nc(N(C)OC)n1.O=S(=O)(O)O [XXXVI, N-(4,6-Bis-n-propylamino-[1,3,5]triazin-2-yl)-N,O-dimethyl-hydroxylamine hydrogen sulfate] | had no obvious effect | had an effect to reverse the effects of midazolam | 100 | no adverse behavioral effects observed |  |  |  |  |  | 
CCCNc1nc(NCCC)nc(N(C)OC)n1 [XXXV, N-(4,6-Bis-n-propylamino-[1,3,5]triazin-2-yl)-N,O-dimethyl-hydroxylamine] |  |  |  |  | 42 | concentration—dependent inhibition | 22.3 | 0.014 | 41.4 | 0.020
